8 molecules from patent publication US10781208B2, “5,6-dihydro-11H-indolo[2,3-B]quinolin-11-ones as alk inhibitors” (THE REGENTS OF THE UNIVERSITY OF MICHIGAN, priority 2016, dated 2020) can be followed below.

One assay has as its target T1, wild-type human ALK (Homo sapiens, UniProt Q9UM73).
T1 construct: The cytoplasmic domain (amino acid 1058-1620) of wild-type human ALK protein; GST (N); purchased Carna Biosciences, Inc (Japan)
In words: ALK kinase activity, Lance TR-FRET assay (wild-type). It counts as biochemical. Conditions: Table 2, ALK enzyme; read-out: Inhibitory activity (nM) ALK. The protocol: Mutated ALK proteins were expressed in SF9 insect cells with N-terminal tags cleaved after purification. Kinase activities of all enzymes were assessed using a Lance TR-FRET assay kit from Perkin Elmer Life Sciences (Waltham, Mass.). 2.5 μL of compound solution and 5 μL of protein solution were added into a black low volume 384 well microtiter plate which was incubated for 30 minutes with gentle shaking at room temperature, followed by adding 2.5 μL of fluorescently labeled peptide substrate and ATP mixture solution. The kinase reaction was performed in 50 mM HEPES (pH 7.5) with 1 mM EGTA, 1 mM MgCl2, and 2 mM DTT, 0.01% Tween-20 added right before the assay. […] The final mixture was incubated in the dark for 1 hour before the plate was read on a Tecan Infinite M-1000 multi-mode plate reader (Tecan, Durham N.C.) with an excitation wavelength of 320 nm.
(In general: TR-FRET usually uses a lanthanide donor and a delayed reading to cut background.)

The next assay concerns Kappas-299 (NPM-ALK). The assay is described as follows: Cell growth inhibition assay (WST-8), Kappas-299. The format is cell-based. The note with it: read-out: Kappas-299 (nM) (NPM-ALK), 50% of cell growth inhibition (IC50), Kappas-299 cells, WST-8, versus DMSO control. The procedure: (§1) All cell lines were cultured as recommended. For cell growth inhibition assay, cells were treated with different concentrations of the tested compounds, diluted from stock to culture media containing a 0.2% DMSO as the final concentration. Cell viability was determined using the WST-8 cell proliferation assay kit (Dojindo Molecular Technologies) according to manufacture's instructions. Three independent experiments in triplicates were performed.
Background: Tetrazolium assays rely on reduction of a dye to a coloured formazan, in cell work by metabolically active cells.

The subject of a further assay is H3122 (EML4-ALK). The assay is described as follows: Cell growth inhibition assay (WST-8), H3122. The format is cell-based. Conditions: Homo sapiens, NCI-H3122, read-out: H3122 (nM) (EML4-ALK), 50% of cell growth inhibition (IC50); H3122 cells, WST-8, versus DMSO control. The procedure: as §1
A further assay concerns KARPAS 299 xenograft. In words: KARPAS 299 xenograft model in mice, in vivo antitumor efficacy. The note with it: SCID mice, given orally, once daily for 3 weeks, FIG. 1. The procedure:
Tumor cells for xenografts were washed twice in PBS, and re-suspended in an ice cold mixture of 1:1 PBS and Matrigel (BD Biosciences, Invitrogen Corp.) for a final Matrigel protein concentration of 5 mg/ml. Cells at 5×10^6 cells in 0.1 ml were injected subcutaneously (s.c.) into the flank region of each mouse.
The size of tumors growing in the mice was measured in two dimensions using calipers. Tumor volume (mm^3)=(A×B^2)/2 where A and B are the tumor length and width (in mm), respectively. During treatment, tumor volume and body weight were measured three times a week. After the treatment was stopped, tumor volume and body weight was measured at least once a week.
Tumors were not allowed to exceed 10% of the animal's total body weight. If an animal had two or more tumors the total weight of all tumors were not allowed to exceed 10% of the animal's total body weight. At the end of the experimental period or when tumor size approached 10% of the total body weight, the animal was euthanized.
Mice with tumors within acceptable size range were randomized into treatment groups of 7 mice. Drug was given orally, once daily for 3 weeks. The Control group received vehicle alone.

T1 sequence (Q9UM73 1058-1620): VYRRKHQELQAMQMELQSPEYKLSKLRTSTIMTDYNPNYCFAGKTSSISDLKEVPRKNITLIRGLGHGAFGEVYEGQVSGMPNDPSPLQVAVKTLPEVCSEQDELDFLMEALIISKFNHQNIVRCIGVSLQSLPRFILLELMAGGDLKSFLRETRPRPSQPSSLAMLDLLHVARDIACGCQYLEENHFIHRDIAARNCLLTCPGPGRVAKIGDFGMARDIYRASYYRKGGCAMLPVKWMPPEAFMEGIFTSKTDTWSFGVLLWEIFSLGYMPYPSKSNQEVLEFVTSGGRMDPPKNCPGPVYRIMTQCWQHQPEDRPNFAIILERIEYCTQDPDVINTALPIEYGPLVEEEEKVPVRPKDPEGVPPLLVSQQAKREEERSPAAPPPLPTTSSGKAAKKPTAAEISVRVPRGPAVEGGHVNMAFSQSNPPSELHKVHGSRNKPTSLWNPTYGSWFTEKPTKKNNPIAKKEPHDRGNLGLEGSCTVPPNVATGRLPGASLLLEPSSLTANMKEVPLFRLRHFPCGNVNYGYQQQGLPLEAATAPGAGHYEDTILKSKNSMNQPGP

As to `COc1cc2c(=O)c3c4ccc(C#N)cc4[nH]c3n(C(C)C)c2c(F)c1C1=C[C@@H](C)N(C)[C@@H](C)C1` [Cpd. No. 19, 4-fluoro-5-isopropyl-2-methoxy-11-oxo-3-((2S,6R)-1,2,6-trimethyl-1,2,3,6-tetrahydropyridin-4-yl)-6,11-dihydro-5H-indolo[2,3-b]quinoline-8-carbonitrile], the results for the IC50 on wild-type human ALK, in the assay with Kappas-299 (NPM-ALK) and with H3122 (EML4-ALK) were 0.36 nM, 16 nM and 20 nM, respectively. For the same molecule, the “tumor growth in the KARPAS 299 xenograft model” value (“tumor growth” for short) in the assay on KARPAS 299 xenograft is recorded as “inhibit tumor growth”.

On to `COc1cc2c(=O)c3c4ccc(C#N)cc4[nH]c3n(C(C)C)c2c(F)c1C1CC2CCC(C1)N2C` (stereo not shown) [Cpd. No. 10, 4-fluoro-5-isopropyl-2-methoxy-3-(8-methyl-8-azabicyclo[3.2.1]octan-3-yl)-11-oxo-6,11-dihydro-5H-indolo[2,3-b]quinoline-8-carbonitrile], for which the IC50 was 0.37 nM at wild-type human ALK and 69 nM with Kappas-299 (NPM-ALK).

As to `COc1cc2c(=O)c3c4ccc(C#N)cc4[nH]c3n(C(C)C)c2c(F)c1C1=CC(C)(C)N(C)C(C)(C)C1` [Cpd. No. 12, 4-fluoro-5-isopropyl-2-methoxy-11-oxo-3-(1,2,2,6,6-pentamethyl-1,2,3,6-tetrahydropyridin-4-yl)-6,11-dihydro-5H-indolo[2,3-b]quinoline-8-carbonitrile], the IC50 on wild-type human ALK is 0.24 nM; in the assay with Kappas-299 (NPM-ALK) it was 9.7 nM. In the assay with KARPAS 299 xenograft, the “tumor growth” value is listed as “inhibit tumor growth”.

In the case of `COc1cc2c(=O)c3c4ccc(C#N)cc4[nH]c3n(C(C)C)c2c(F)c1C1=CCNCC1` [Cpd. No. 16, 4-fluoro-5-isopropyl-2-methoxy-11-oxo-3-(1,2,3,6-tetrahydropyridin-4-yl)-6,11-dihydro-5H-indolo[2,3-b]quinoline-8-carbonitrile], the IC50 came out at 0.85 nM on wild-type human ALK and 167 nM in the assay on Kappas-299 (NPM-ALK).

As for `COc1cc2c(=O)c3c4ccc(C#N)cc4[nH]c3n(C(C)C)c2c(F)c1C1=CCN(C)CC1` [Cpd. No. 17, 4-fluoro-5-isopropyl-2-methoxy-3-(1-methyl-1,2,3,6-tetrahydropyridin-4-yl)-11-oxo-6,11-dihydro-5H-indolo[2,3-b]quinoline-8-carbonitrile], the IC50 at wild-type human ALK turned out to be 0.75 nM; in the assay on Kappas-299 (NPM-ALK), 60 nM.

Take `COc1cc2c(=O)c3c4ccc(C#N)cc4[nH]c3n(C(C)C)c2c(F)c1C1=CCN(C2CCOCC2)CC1` [Cpd. No. 20, 4-fluoro-5-isopropyl-2-methoxy-11-oxo-3-(1-(tetrahydro-2H-pyran-4-yl)-1,2,3,6-tetrahydropyridin-4-yl)-6,11-dihydro-5H-indolo[2,3-b]quinoline-8-carbonitrile]: the results for the IC50 at wild-type human ALK, with Kappas-299 (NPM-ALK) and in the assay on H3122 (EML4-ALK) were 1.4 nM, 38 nM and 30 nM, respectively. Also, the “tumor growth” value in the assay with KARPAS 299 xenograft is reported as “inhibit tumor growth”.

`COc1cc2c(=O)c3c4ccc(C#N)cc4[nH]c3n(C(C)C)c2c(F)c1C1=C[C@@H](C)N[C@@H](C)C1` [Cpd. No. 18, 3-((2S,6R)-2,6-dimethyl-1,2,3,6-tetrahydropyridin-4-yl)-4-fluoro-5-isopropyl-2-methoxy-11-oxo-6,11-dihydro-5H-indolo[2,3-b]quinoline-8-carbonitrile]: the IC50 at wild-type human ALK worked out at 0.5 nM; in the assay with Kappas-299 (NPM-ALK) it was 16 nM; in the assay with H3122 (EML4-ALK), 18 nM.

Regarding `CCN1[C@H](C)CN(c2c(OC)cc3c(=O)c4c5ccc(C#N)cc5[nH]c4n(C(C)C)c3c2F)C[C@@H]1C` [Cpd. No. 9, 3-((3R,5S)-4-ethyl-3,5-dimethylpiperazin-1-yl)-4-fluoro-5-isopropyl-2-methoxy-11-oxo-6,11-dihydro-5H-indolo[2,3-b]quinoline-8-carbonitrile], the IC50 in the assay on Kappas-299 (NPM-ALK) turned out to be 85 nM; in the assay with H3122 (EML4-ALK), 27 nM.
